# Laboratory results as given in patent US20260256753A1, “USE OF AN OREXIN 2 RECEPTOR AGONIST FOR IMPROVING RESPIRATORY FUNCTION DURING SLEEP” (TAKEDA PHARMACEUTICAL COMPANY LIMITED, priority 2023, published 2026).
# Assays:
# Type in all cases: in vivo, rat
# diaphragm = test: EMG recording of the diaphragm in anesthetized rats; conditions: 10 min after administration, versus vehicle, FIG. 4
# Procedure: Rats were anaesthetized with isoflurane (induction: 2%, maintenance: 1.5%). Anesthetic depth was assessed by the reflex responses to paw pinches. The tail vein was cannulated for intravenous drug administration. Rats were laid on disposable body warmers to prevent decrease in body temperature. The diaphragm was exposed, then two needle electrodes were implanted into costal diaphragm to monitor diaphragm EMG. After 10 min of baseline recording, vehicle (0.1% [w/v] Polysorbate 80 and 20% [w/v] Captisol solution) or Compound C was administered intravenously, and then EMG was recorded for 10 min. EMG was amplified using Bio amp system (ML132, AD Instruments), high-pass filtered (10 Hz), digitized, and recorded using PowerLab software (AD Instruments), and then rectified and integrated with a time constant decay (100 ms) using LabChart software (AD Instruments). Threshold levels for bursts were set using LabChart software (AD Instruments). Bursts were then automatically detected, and burst frequency was measured. Mean values in burst frequency during 2 min before vehicle or Compound C administration were used as control values, and those during 10 min after vehicle or Compound C administration were used to calculate percent of control values.
# rats = test: Arousal effects after oral administration in rats; conditions: oral administration at 10 mg/kg or more
# genioglossus muscle = test: EMG recording of the genioglossus muscle in anesthetized rats; conditions: 1 mg/kg intravenous, 10 min after administration, versus vehicle, FIG. 5
# Procedure: EMG recording of the genioglossus muscle was conducted as described previously (G. H. Zhang, et al.) with slight modifications. Rats were anaesthetized with urethane (2.0 g/kg, intraperitoneal injection). Anesthetic depth was assessed by the reflex responses to paw pinches. The tail vein was cannulated for intravenous drug administration. Each rat was laid on a servo-controlled electric heating pad. The body temperature of the rat was monitored with a rectal probe of the pad and kept at around 37° C. […] After 10 min of baseline recording, vehicle (0.1% [w/v] Polysorbate 80 and 20% [w/v] Captisol solution) or Compound C was administered intravenously and then EMG was recorded for 10 min. EMG was amplified 1,000-fold, band-pass filtered (100-5,000 Hz) using Microelectrode AC Amplifier (Model 1800; A-M systems, Carlsborg, WA, USA), digitized using AD converter (Power 1401; Cambridge Electronic Design, Cambridge, UK), recorded using Spike2 software (Cambridge Electronic Design), and then rectified and integrated with a time constant decay (100 ms) using LabChart software (AD Instruments). […] Bursts were then automatically detected, and burst amplitude was measured. […]
compound,measurement,setting,value
"CC(C)(O)C(=O)N1CC(F)(F)[C@H](NS(C)(=O)=O)[C@@H]1Cc1cccc(-c2cc(F)cc(F)c2)c1F [Compound C, N-{(2S,3R)-4,4-difluoro-1-(2-hydroxy-2-methylpropanoyl)-2-[(2,3′,5′-trifluoro[1,1′-biphenyl]-3-yl)methyl]pyrrolidin-3-yl}methanesulfonamide]",burst frequency of the diaphragm,diaphragm; 1 mg/kg intravenous,significantly increased burst frequency
same,burst frequency of the diaphragm,diaphragm; 3 mg/kg intravenous,significantly increased burst frequency
same,arousal effects,rats,potent arousal effects
same,burst amplitude of the genioglossus muscle,genioglossus muscle,significantly increased burst amplitude
